According to patent publication US20220411362A1, “DITERPENOID COMPOUNDS THAT ACT ON PROTEIN KINASE C (PKC)” (K-Gen, Inc., priority 2019, published 2022):

Experiments:
[1] = molecular target: T1, C1b domain of human PKCα (Homo sapiens, UniProt P17252); test: biochemical; assay type: binding; conditions: 3H-PDBu competition; for Ki: Ki PKCα
T1 construct: Genes encoding C1b domains of human PKCα, δ, ε, θ, and PKD1 (PKCμ) were synthesized; made in house; host or cells: E. coli BL21(DE3)
How it was run: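 Competitive binding against 3H-PDBu tracer used recombinant GST-C1b fusion protein expressed in E. coli. Incubation ran 10 min at 37°C with shaking, then 20 min on ice, followed by filtration and scintillation counting of trapped 3H-PDBu. Affinity was derived using each protein preparation's experimentally determined Kd for 3H-PDBu.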

[2] = molecular target: T2, C1b domain of human PKCθ (Homo sapiens, UniProt Q04759); test: Competitive 3H-PDBu binding to C1b domain of PKCθ
T2 construct: Genes encoding C1b domains of human PKCα, δ, ε, θ, and PKD1 (PKCμ) were synthesized; made in house; host or cells: E. coli BL21(DE3)
T2 sequence (Q04759 231-281 limits assumed): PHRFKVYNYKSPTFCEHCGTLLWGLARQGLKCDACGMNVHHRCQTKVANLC
How it was run: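 Recombinant GST-C1b domains (E. coli-expressed) or full-length human PKC competed against tracer ^3H-PDBu; incubation 10 min at 37°C then 20 min on ice, bound radioligand filter-trapped and scintillation-counted. IC50 fitted and converted to Ki via Cheng-Prusoff using experimentally determined Kd per protein preparation.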

[3] = test system: phosphorylation of CaMKii at T286 in Panc1 cells; test: CaMKii phosphorylation in Panc1 cell line (Western blot); assay type: cell-based; conditions: 0.02 μM and 0.1 M, 48 hours (FIG. 5)
Protocol: Panc1 (a pancreatic cancer cell line) cells (˜5-8 millions) were seeded in 10 cm dishes (or ˜2 millions in 6 cm dishes) and treated next day with prostratin (K-101, 0.2 μM and 1 μM) or 0.02 μM and […] of K101-C1347, -C134801, and -C134802 for 48 hours. Cells were then collected/lysed for Western blot analysis. Protein quantification, SDS-PAGE, and Western blot procedures were performed as described in Example 65, except that a different lysis buffer (1 ml of 10×TNE [20 mL 1M Tris pH7.5; 30 mL 5M NaCl; 2 mL 0.5M EDTA; 48 mL d2H2O], 1 ml of 10% NP40, 7.7 mL of dH2O, 100 μL of 10× Protease inhibitors, 100 μL of 10× Phosphatase inhibitors, and 10 μl DTT) was used. To assess the effect of diterpenoid compounds on CaMKii phosphorylation, a phospho-specific antibody P-CaMKii (T286) (Abcam, cat #32678) was used for detection. Phosphorylation of CaMKii at T286 is a marker for activation of CaMKii kinase in the Wnt/Ca^2+ signaling pathway when […] and thus a downstream marker for inhibition of K-Ras stemness (Wang et al., Cell. 2015, 163(5):1237-51).

[4] = test system: KP-4 (Pancreatic) cell line; test: Proliferation of KP-4; assay type: cell-based; conditions: Homo sapiens, KP-4, read-out: IC50 in μM KP-4 (Pancreatic)
How it was run: (§1)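 Luminescent ATP readout (CellTiter Glo) after 96 h compound exposure measured growth inhibition relative to DMSO-only wells, from which IC50 was fitted. Seeding densities were 800-1000 cells/well for KP-4, 5000 for HL-60 and 5000-10000 for Namalwa and Mino.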

[5] = test system: HL-60 (Leukemia) cell line; test: Proliferation of HL-60; assay type: cell-based; conditions: for ratio of (IC50 of K01)/(IC50 of compound), HL-60: value in parenthesis; for IC50: Homo sapiens, HL-60, read-out: IC50 in μM HL-60 (Leukemia)
How it was run: as §1

[6] = test system: Namalwa (Lymphoma) cell line; test: Proliferation of Namalwa; assay type: cell-based; conditions: for ratio of (IC50 of K01)/(IC50 of compound), Namalwa: value in parenthesis; for IC50: read-out: IC50 in μM Namalwa (Lymphoma)
How it was run: as §1

Row | Structure (SMILES) | Ki [1] | Ki [2] | phosphorylation of CaMKii at T286 [3] | IC50 [4] | ratio of (IC50 of K01)/(IC50 of compound), HL-60 [5] | IC50 [5] | ratio of (IC50 of K01)/(IC50 of compound), Namalwa [6] | IC50 [6] | Ki PKCα [1]
1 | CC1=C[C@H]2[C@@]3(O)[C@H](C)C[C@]4(OC(=O)[C@H](N)CCCCCCc5ccccc5)[C@H]([C@@H]3C=C(CO)C[C@]2(O)C1=O)C4(C)C [Compound K101-C134801] | 400 to 800 nM | 1 to 30 nM | induced phosphorylation of CaMKii at T286 | 0.03 to 0.06 µM | 4.43 | 0.01 to 0.03 µM | 4.93 | 0.01 to 0.03 µM | 
2 | CC1=C[C@H]2[C@@]3(O)[C@H](C)C[C@]4(OC(=O)[C@@H](N)CCCCCCc5ccccc5)[C@H]([C@@H]3C=C(CO)C[C@]2(O)C1=O)C4(C)C [Compound K101-C134802] | 30 to 60 nM | < 5 nM | induced phosphorylation of CaMKii at T286 | 0.001 to 0.01 µM | 12.1 | 0.001 to 0.01 µM | 16.1 | 0.001 to 0.01 µM | 
3 | CC1=C[C@H]2[C@@]3(O)[C@H](C)C[C@]4(OC(=O)[C@@H](N)[C@]56C[C@H]7C[C@H](C[C@H](C7)C5)C6)[C@H]([C@@H]3C=C(CO)C[C@]2(O)C1=O)C4(C)C [Compound K101-C1347] | 1 to 30 nM | < 5 nM | induced phosphorylation of CaMKii at T286 | 0.001 to 0.01 µM | 16.2 | 0.001 to 0.01 µM | 18.2 | 0.001 to 0.01 µM | 
4 | CC1=C[C@H]2[C@@]3(O)[C@H](C)C[C@]4(OC(=O)[C@@H](N)CC5CCCCC5)[C@H]([C@@H]3C=C(CO)C[C@]2(O)C1=O)C4(C)C [Compound K101-C1327] |  | 5 to 10 nM |  | 0.1 to 0.2 µM | 2.32 | 0.03 to 0.06 µM | 2.03 | 0.03 to 0.06 µM | E (E=>60 nM and ≤10 nM)
